Assay results published in ChEMBL document CHEMBL5715956, “Selective Targeting of Bromodomains of the Bromodomain-PHD Fingers Family Impairs Osteoclast Differentiation” (ACS Chem Biol, 2017).

Tests used:
[1] = molecular target: T1, Bromodomain and PHD finger-containing protein 3 (Homo sapiens) (UniProt Q9ULD4); test: Binding affinity to BRPF3 (unknown origin) assessed as change in entropy at 12 uM by Isothermal titration calorimetry
T1 sequence (whole entry): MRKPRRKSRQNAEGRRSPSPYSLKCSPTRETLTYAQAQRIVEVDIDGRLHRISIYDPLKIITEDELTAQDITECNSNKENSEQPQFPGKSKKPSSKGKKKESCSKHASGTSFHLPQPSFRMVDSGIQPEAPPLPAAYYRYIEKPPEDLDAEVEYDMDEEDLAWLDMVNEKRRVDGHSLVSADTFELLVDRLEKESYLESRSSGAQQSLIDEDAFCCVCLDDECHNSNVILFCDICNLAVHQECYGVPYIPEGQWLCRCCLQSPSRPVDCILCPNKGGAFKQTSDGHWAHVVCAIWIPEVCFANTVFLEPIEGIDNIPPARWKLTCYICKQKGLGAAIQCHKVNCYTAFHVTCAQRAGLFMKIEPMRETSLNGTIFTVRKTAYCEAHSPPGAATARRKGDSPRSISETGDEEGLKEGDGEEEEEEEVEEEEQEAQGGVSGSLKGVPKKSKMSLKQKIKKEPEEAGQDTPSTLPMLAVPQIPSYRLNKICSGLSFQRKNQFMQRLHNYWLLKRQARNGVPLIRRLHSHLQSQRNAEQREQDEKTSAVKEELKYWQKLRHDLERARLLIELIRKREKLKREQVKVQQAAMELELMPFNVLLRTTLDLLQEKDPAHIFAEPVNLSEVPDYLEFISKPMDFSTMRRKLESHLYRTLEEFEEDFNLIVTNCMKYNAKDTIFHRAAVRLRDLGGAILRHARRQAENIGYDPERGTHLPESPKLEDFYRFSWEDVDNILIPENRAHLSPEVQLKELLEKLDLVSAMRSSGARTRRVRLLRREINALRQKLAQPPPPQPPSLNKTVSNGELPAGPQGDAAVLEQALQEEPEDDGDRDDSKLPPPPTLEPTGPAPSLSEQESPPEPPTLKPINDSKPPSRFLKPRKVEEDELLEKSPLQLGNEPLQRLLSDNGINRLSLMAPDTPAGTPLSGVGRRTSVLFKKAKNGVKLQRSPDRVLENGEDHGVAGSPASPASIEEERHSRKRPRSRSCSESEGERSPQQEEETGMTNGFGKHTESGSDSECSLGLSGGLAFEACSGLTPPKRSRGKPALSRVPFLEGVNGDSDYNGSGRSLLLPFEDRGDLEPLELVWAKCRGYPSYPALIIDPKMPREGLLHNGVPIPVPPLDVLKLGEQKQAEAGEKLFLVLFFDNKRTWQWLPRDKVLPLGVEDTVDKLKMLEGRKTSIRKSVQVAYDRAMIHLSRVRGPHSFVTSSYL

[2] = molecular target: Bromodomain and PHD finger-containing protein 3 (Homo sapiens, UniProt Q9ULD4); test: Inhibition of BRPF3 (unknown origin) incubated for 60 mins by alphascreen competitive assay
[3] = molecular target: T1, Bromodomain and PHD finger-containing protein 3 (Homo sapiens); test: Binding affinity to BRPF3 (unknown origin) assessed as change in entropy TdeltaS at 12 uM by Isothermal titration calorimetry
[4] = molecular target: Protein polybromo-1 (Homo sapiens) (UniProt Q86U86); conditions: dose 10.0 µM
[5] = molecular target: T1, Bromodomain and PHD finger-containing protein 3 (Homo sapiens); test: Binding affinity to BRPF3 (unknown origin) assessed as change in enthalpy at 12 uM by Isothermal titration calorimetry
Peregrin (Homo sapiens) = molecular target: T2, Peregrin (Homo sapiens) (UniProt P55201); test: Binding affinity to […] (unknown origin) assessed as change in enthalpy at 17 uM by Isothermal titration calorimetry
T2 sequence (whole entry): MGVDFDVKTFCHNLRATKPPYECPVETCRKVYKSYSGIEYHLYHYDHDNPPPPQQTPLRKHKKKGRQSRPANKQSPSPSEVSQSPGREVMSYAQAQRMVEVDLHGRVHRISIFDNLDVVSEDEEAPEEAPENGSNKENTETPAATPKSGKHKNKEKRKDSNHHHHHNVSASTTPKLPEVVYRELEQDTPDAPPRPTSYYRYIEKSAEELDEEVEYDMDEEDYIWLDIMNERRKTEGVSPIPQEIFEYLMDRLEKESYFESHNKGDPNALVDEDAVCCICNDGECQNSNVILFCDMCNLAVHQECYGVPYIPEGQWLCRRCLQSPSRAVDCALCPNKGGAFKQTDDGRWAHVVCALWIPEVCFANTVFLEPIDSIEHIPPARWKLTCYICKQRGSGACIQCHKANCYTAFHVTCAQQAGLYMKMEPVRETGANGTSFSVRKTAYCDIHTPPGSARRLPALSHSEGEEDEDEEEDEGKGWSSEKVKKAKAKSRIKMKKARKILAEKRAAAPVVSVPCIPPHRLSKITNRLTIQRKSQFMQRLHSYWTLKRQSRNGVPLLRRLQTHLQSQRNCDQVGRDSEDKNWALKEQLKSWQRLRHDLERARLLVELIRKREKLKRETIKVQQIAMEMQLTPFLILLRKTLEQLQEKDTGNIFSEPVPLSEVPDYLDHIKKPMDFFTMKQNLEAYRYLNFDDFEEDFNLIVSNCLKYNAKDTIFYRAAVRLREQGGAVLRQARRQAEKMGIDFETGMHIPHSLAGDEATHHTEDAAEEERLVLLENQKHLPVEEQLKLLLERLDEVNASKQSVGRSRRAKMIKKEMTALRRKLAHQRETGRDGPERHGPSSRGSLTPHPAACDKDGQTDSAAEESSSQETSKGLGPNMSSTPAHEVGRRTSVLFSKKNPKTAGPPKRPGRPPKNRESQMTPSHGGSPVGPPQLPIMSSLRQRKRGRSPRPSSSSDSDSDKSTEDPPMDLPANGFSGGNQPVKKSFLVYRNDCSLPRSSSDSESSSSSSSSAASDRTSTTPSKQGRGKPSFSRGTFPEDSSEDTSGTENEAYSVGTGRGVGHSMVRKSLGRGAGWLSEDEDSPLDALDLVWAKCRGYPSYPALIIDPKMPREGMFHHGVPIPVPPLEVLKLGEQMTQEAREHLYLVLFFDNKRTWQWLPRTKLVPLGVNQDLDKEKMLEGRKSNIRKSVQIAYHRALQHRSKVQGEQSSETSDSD

[6] = molecular target: Bromodomain-containing protein 4 (Homo sapiens) (UniProt O60885); test: Binding affinity to BRD4 BD1 (unknown origin) assessed as change in entropy at 14 uM by Isothermal titration calorimetry
[7] = molecular target: Histone-lysine N-methyltransferase ASH1L (Homo sapiens) (UniProt Q9NR48); conditions: dose 10.0 µM
[8] = molecular target: Bromodomain-containing protein 2 (Homo sapiens) (UniProt P25440); conditions: dose 10.0 µM
[9] = molecular target: Adrenergic receptor alpha-2 (Homo sapiens) (UniProt P08913+P18825+P18089); test: Inhibition of Alpha 2 receptor (unknown origin) at 10 uM relative to control; assay type: protein assay
[10] = molecular target: Histone-lysine N-methyltransferase 2A (Homo sapiens) (UniProt Q03164); conditions: dose 10.0 µM
Histone-lysine N-methyltransferase 2A (Homo sapiens), sequence (Q03164 1-2718 limits assumed): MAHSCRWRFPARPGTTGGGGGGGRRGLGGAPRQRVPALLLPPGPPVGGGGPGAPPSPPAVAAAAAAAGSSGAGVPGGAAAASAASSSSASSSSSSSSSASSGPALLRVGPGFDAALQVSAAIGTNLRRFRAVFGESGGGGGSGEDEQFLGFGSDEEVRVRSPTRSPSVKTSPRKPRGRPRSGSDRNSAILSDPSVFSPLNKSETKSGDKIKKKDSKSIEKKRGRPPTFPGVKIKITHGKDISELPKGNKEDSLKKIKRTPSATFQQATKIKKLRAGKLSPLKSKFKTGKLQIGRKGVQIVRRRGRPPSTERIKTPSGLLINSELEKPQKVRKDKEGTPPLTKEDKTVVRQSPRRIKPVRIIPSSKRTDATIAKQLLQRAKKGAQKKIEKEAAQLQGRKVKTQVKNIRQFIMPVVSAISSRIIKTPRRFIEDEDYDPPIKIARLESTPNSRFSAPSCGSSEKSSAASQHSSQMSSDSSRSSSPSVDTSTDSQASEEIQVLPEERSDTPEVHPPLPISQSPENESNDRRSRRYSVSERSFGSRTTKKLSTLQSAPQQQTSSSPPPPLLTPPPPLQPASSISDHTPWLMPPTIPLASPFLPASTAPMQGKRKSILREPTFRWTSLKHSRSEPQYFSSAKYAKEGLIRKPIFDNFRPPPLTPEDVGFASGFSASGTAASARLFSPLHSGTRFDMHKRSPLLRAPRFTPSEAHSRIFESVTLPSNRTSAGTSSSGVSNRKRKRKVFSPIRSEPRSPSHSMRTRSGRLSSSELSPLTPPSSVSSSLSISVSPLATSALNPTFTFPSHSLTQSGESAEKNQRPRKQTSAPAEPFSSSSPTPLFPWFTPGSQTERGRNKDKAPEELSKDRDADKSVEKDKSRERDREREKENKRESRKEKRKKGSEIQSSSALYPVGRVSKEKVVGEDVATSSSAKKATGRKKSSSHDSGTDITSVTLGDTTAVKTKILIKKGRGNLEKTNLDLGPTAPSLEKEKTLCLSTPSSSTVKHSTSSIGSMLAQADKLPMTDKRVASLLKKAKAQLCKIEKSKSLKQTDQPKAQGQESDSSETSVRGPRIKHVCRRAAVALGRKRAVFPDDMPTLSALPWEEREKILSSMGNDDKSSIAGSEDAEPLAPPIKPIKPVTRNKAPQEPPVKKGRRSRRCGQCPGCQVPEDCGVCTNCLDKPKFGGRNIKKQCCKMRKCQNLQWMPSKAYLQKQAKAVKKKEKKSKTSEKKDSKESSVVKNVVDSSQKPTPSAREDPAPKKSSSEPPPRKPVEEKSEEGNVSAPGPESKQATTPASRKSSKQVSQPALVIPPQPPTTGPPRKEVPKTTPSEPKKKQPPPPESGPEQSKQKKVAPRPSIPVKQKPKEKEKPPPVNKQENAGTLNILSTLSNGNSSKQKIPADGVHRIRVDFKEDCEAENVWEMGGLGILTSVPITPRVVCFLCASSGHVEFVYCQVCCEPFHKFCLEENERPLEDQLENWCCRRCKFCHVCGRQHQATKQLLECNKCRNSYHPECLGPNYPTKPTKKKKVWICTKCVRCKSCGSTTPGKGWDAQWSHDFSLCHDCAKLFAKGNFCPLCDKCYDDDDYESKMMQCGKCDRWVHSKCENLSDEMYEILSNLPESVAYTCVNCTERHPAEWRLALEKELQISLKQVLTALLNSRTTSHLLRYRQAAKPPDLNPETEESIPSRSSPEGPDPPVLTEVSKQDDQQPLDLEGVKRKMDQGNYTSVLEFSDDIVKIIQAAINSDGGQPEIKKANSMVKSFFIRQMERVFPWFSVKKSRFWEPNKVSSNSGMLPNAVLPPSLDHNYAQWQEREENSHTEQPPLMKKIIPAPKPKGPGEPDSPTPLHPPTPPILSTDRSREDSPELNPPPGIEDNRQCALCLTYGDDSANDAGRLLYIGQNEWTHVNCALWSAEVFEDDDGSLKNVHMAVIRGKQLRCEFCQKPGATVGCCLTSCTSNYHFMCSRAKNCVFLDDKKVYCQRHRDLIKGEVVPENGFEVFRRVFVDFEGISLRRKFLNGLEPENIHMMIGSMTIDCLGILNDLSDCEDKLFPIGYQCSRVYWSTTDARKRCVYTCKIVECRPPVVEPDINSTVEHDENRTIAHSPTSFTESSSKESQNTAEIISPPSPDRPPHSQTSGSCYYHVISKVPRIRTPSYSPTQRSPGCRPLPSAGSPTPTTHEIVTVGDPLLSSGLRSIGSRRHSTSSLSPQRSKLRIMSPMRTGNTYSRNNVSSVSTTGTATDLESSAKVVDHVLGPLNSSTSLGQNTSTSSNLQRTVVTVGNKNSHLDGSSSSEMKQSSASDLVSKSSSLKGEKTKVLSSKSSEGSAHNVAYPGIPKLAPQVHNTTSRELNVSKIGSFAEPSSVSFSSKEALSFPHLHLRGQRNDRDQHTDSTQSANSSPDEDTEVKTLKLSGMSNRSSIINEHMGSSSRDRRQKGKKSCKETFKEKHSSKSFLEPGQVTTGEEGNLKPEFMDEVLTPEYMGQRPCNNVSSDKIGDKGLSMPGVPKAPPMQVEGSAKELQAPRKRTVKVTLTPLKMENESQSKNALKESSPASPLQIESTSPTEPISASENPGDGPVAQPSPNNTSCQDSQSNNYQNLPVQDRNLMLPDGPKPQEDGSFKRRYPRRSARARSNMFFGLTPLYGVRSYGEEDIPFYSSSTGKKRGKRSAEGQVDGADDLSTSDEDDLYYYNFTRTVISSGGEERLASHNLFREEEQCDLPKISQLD
Histone-lysine N-methyltransferase 2A (Homo sapiens), sequence (Q03164 2719-3969 limits assumed): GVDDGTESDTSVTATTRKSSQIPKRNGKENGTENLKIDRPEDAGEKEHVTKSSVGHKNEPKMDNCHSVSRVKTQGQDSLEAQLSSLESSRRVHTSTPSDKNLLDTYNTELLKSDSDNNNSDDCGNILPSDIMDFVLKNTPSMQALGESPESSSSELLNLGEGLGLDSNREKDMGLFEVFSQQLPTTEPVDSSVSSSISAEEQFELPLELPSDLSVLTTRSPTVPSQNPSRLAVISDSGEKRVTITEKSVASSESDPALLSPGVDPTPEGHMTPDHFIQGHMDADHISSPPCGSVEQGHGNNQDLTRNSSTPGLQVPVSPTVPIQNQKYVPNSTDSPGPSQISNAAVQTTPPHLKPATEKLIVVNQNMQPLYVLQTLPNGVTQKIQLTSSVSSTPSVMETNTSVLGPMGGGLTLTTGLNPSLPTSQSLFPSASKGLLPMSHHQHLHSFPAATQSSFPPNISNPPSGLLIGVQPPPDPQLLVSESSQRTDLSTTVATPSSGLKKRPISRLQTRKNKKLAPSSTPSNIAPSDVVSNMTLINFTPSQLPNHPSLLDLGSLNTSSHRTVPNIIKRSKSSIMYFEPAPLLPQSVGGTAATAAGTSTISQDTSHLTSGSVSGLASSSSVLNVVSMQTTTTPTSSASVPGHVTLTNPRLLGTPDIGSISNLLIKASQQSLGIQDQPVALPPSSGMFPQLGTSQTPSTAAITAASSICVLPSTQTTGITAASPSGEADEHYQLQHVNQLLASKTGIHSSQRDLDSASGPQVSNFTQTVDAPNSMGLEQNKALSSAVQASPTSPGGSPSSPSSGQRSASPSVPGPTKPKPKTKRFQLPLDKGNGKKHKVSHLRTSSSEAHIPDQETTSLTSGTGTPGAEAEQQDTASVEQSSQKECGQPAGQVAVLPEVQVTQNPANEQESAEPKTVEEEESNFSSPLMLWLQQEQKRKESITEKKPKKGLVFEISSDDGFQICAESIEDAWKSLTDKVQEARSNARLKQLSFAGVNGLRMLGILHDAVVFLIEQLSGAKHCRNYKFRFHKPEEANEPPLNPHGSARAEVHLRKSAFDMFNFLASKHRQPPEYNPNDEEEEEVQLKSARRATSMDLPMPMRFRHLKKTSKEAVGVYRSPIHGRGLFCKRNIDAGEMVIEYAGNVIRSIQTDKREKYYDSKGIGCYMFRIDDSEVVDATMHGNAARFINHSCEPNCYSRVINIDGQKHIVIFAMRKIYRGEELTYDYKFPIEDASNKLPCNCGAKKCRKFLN

Bromodomain-containing protein 2 (Homo sapiens), sequence (P25440 whole entry, looked up): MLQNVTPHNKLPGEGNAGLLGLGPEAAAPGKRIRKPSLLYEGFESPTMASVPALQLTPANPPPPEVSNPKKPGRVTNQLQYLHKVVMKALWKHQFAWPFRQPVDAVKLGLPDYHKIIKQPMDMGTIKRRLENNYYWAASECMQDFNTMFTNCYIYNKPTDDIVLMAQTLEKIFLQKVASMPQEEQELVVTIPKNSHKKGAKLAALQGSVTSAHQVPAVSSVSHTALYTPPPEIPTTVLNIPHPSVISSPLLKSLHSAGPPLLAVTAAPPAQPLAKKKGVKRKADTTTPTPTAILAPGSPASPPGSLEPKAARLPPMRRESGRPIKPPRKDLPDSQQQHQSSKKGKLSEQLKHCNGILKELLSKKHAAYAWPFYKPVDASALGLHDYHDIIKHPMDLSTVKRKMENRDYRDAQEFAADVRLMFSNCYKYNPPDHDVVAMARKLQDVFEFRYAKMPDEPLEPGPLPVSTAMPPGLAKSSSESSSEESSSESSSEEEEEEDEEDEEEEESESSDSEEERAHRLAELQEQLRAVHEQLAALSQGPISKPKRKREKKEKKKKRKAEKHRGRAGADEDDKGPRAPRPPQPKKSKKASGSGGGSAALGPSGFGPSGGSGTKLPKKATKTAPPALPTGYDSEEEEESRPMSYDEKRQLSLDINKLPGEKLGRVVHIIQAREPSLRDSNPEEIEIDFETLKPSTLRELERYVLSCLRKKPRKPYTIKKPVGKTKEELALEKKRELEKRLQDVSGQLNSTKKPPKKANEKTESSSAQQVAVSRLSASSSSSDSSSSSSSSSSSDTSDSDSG

SMILES: COc1cc2c(cc1NS(=O)(=O)c1ccc(Br)cc1C)n(C)c(=O)n2C
- deltaS [1]: 0.002 kcal/mol/K
- IC50 [2]: Not Active
- TdeltaS [3]: 0.427 kcal/mol
- ΔTm [4]: 0.8 °C
- deltaH [5]: -7.37 kcal/mol
- deltaH (Peregrin (Homo sapiens)): -12.6 kcal/mol
- deltaS [6]: 0.001 kcal/mol/K
- ΔTm [7]: 0.3 °C
- ΔTm [8]: 0.7 °C
- inhibition [9]: -3%
- ΔTm [10]: 0.3 °C
